From patent publication US9266834B2, “1, 4-disubstituted 3-cyano-pyridone derivatives and their use as positive allosteric modulators of MGLUR2-receptors” (JANSSEN PHARMACEUTICALS, INC., priority 2006, dated 2016) come the findings set out here.

Broadly, the melting point is the temperature, or range, at which the solid turns liquid.

One data set deals with T1, human mGluR2 receptor (Homo sapiens, UniProt Q14416).
T1 construct: expressed in transfected cells; host or cells: CHO cells (membrane preparation)
T1 sequence (Q14416 19-872): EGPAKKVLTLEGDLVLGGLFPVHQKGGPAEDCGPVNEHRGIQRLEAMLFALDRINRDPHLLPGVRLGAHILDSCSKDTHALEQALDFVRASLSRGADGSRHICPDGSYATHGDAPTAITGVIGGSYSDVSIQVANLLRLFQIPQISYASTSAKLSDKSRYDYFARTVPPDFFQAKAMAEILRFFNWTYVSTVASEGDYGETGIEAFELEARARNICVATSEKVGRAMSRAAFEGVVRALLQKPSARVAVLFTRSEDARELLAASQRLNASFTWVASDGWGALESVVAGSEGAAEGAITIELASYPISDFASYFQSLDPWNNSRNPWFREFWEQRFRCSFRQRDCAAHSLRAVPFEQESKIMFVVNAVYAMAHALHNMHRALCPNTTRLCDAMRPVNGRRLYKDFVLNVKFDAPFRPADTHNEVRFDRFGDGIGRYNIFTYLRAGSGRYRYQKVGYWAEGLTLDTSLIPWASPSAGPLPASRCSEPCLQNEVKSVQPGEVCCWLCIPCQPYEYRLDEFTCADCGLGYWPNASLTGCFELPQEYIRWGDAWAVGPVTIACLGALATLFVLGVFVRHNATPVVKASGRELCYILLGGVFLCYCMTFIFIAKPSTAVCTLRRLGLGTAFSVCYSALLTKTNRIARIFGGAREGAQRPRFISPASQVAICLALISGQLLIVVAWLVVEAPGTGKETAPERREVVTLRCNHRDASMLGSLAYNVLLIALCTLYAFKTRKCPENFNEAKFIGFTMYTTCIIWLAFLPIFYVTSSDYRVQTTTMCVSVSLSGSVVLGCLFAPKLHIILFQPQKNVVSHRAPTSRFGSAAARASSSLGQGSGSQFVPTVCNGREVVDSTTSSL
The data set can be described thus: [35S]GTPγS binding assay (GTPγS-PAM): positive allosteric modulation in presence of glutamate at EC25, membranes from transfected CHO cells. The note with it: in presence of mGluR2 agonist glutamate at predetermined EC25 concentration, averages of duplicate values of 11-concentration response curves, read-out: GTPgS - hR2 PAM pEC50 (converted). Type of data set: biochemical. The essentials:
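Membranes came from butyrate-stimulated CHO cells expressing human mGluR2, used at 15 μg/well in HEPES pH 7.4 with 100 mM NaCl, 3 mM MgCl2, 50 μM GDP and saponin. Compound (0.3 nM-50 μM, 11 concentrations) plus glutamate at EC25 was preincubated 30 min at 30° C., then 0.1 nM [35S]GTPγS was added for 30 min. Filter-bound radioactivity was counted, nonspecific binding was taken with 10 μM GTP, and curves were fitted by four-parameter logistic.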
(In general: GTPγS resists hydrolysis and so accumulates on activated G proteins.)

`CC(C)CCn1ccc(-c2ccc(OCc3ccccn3)cc2)c(C#N)c1=O` [1-157] had a melting point of 162 °C. Moreover, the EC50 at human mGluR2 receptor is 398 nM.

For the molecule `N#Cc1c(-c2ccccc2)ccn(Cc2cccc(OC(F)(F)F)c2)c1=O` [1-030], the melting point stood at 153 °C. Also, the EC50 at human mGluR2 receptor was 316 nM.

Regarding `CC(C)CCn1ccc(-c2ccc(NCc3cccc(Cl)c3)cc2)c(C#N)c1=O` [1-202], the melting point was 146 °C. Moreover, the EC50 on human mGluR2 receptor is 31.6 nM.

Molecule `CN(Cc1ccccc1)C1CCN(c2ccn(Cc3ccc(OC(F)(F)F)cc3)c(=O)c2C#N)CC1` [4-049] displayed a melting point of 138 °C. In addition, the EC50 at human mGluR2 receptor is 200 nM.

`COc1ccc(-c2ccn(CCC(C)C)c(=O)c2C#N)cc1Cl` [1-112] gave a melting point of 149 °C. Besides, the EC50 at human mGluR2 receptor is 316 nM.

As to `CC(C)CCn1ccc(-c2ccc(Oc3cccnc3)cc2)c(C#N)c1=O` [1-155], the melting point is 132 °C. Besides, the EC50 at human mGluR2 receptor was 501 nM.

`CC(C)CCn1ccc(N2CCCc3ccccc32)c(C#N)c1=O` [5-031] came in with a melting point of 134 °C. The EC50 on human mGluR2 receptor is 6310 nM.

As to `N#Cc1c(-c2ccccc2)ccn(Cc2ccc(-c3ccccc3)cc2)c1=O` [1-042], the melting point was 185 °C. Further, on human mGluR2 receptor, the EC50 was 158 nM.

In turn, `N#Cc1c(N2CCN(CCc3ccccc3)CC2)ccn(Cc2ccc(OC(F)(F)F)cc2)c1=O` [2-043] gave a melting point of 110 °C. In addition, the EC50 on human mGluR2 receptor was 251 nM.

The molecule `COc1ccc(-c2ccn(CC3CCC(C)CC3)c(=O)c2C#N)cc1` (stereo not drawn) [1-013] came in with a melting point of 128 °C. Moreover, the EC50 on human mGluR2 receptor was 126 nM.

Turning to `CCCCn1ccc(N2CCN(Cc3ccc(OCC4CC4)c(Cl)c3)CC2)c(C#N)c1=O` [2-003], the melting point worked out at 134 °C. For the same molecule, the EC50 on human mGluR2 receptor is 158 nM.

`CC(=O)N1CCN(c2cccc(-c3ccn(CCC(C)C)c(=O)c3C#N)c2)CC1` [1-230]: the melting point was determined as 143 °C. At human mGluR2 receptor, the EC50 was 501 nM.

The molecule `N#Cc1c(N2CCN(Cc3ccc(F)c(F)c3)CC2)ccn(Cc2ccc(F)cc2)c1=O` [2-051] came in with a melting point of 239 °C. On human mGluR2 receptor, the EC50 is 3160 nM.

As for `CC(C)CCn1ccc(-c2ccc(NCc3ccc(C#N)cc3)cc2)c(C#N)c1=O` [1-206], the melting point came to 209 °C. Also, on human mGluR2 receptor, the EC50 was 50.1 nM.

`N#Cc1c(-c2ccc(OCCCN3CCOCC3)cc2)ccn(Cc2ccc(OC(F)(F)F)cc2)c1=O` [1-038] yielded a melting point of 140 °C. In addition, at human mGluR2 receptor, the EC50 was 794 nM.

In turn, `CC(=O)NCc1ccc(-c2ccn(CCC(C)C)c(=O)c2C#N)cc1` [1-179, 4-(4-(N-acetylmethyl)phenyl)-3-cyano-1-(3-methylbutyl)pyridine-2(1H)-one] had a melting point of 144 °C. Moreover, the EC50 at human mGluR2 receptor is 3160 nM.

`COCc1cccc(-c2ccn(CCC(C)C)c(=O)c2C#N)c1` [1-107] displayed a melting point of 67 °C. The EC50 on human mGluR2 receptor was 3160 nM.

Molecule `CC(C)CCn1ccc(-c2ccc(OCc3ccc(C(F)(F)F)nc3)cc2)c(C#N)c1=O` [1-163] came in with a melting point of 202 °C. For the same molecule, the EC50 at human mGluR2 receptor was 79.4 nM.

On to `CC(C)CCn1ccc(OCc2ccc(OC(F)F)cc2)c(C#N)c1=O` [1-284], for which the melting point worked out at 190 °C. The EC50 at human mGluR2 receptor is 631 nM.

As for `CSc1ccc(-c2ccn(CCC(C)C)c(=O)c2C#N)cc1` [1-256], the melting point is 128 °C. The EC50 at human mGluR2 receptor was 158 nM.

As to `CCCCn1ccc(-c2ccc(OC(F)(F)F)cc2)c(C#N)c1=O` [1-055], the melting point amounted to 123 °C. Further, the EC50 on human mGluR2 receptor is 1260 nM.

`CC(C)CCn1ccc(N2CCC(c3cccc(C(F)(F)F)c3)CC2)c(C#N)c1=O` [4-016] registered a melting point of 112 °C. For the same molecule, the EC50 at human mGluR2 receptor is 50.1 nM.

As to `CC(C)CCn1ccc(OC2Cc3ccccc3C2)c(C#N)c1=O` [1-288], the melting point is 169 °C. In addition, the EC50 on human mGluR2 receptor is 1000 nM.

Regarding `CC(C)Cn1ccc(-c2cccs2)c(C#N)c1=O` [1-077], the melting point worked out at 108 °C. In addition, the EC50 on human mGluR2 receptor is 3980 nM.

`CC(C)CCn1ccc(N2CCN(Cc3ccc(OC(F)(F)F)c(Cl)c3)CC2)c(C#N)c1=O` [2-022] gave a melting point of 256 °C. In addition, the EC50 on human mGluR2 receptor is 158 nM.

Consider `CC(C)CCn1ccc(-c2ccc(N3CCC(O)CC3)cc2)c(C#N)c1=O` [1-220], for which the melting point was determined as 213 °C. Moreover, on human mGluR2 receptor, the EC50 was 1260 nM.

For the molecule `COc1ccccc1-c1ccn(CC2CCCCC2)c(=O)c1C#N` [1-011], the melting point was 60 °C. For the same molecule, the EC50 on human mGluR2 receptor was 2000 nM.

The molecule `CNc1ccc(-c2ccn(CCC(C)C)c(=O)c2C#N)cc1` [1-171] displayed a melting point of 189 °C. In addition, the EC50 on human mGluR2 receptor was 501 nM.

With `CC(C)CCn1ccc(N2CCC(N(C)c3cccc(C(F)(F)F)c3)CC2)c(C#N)c1=O` [4-031], the melting point came out at 141 °C. At human mGluR2 receptor, the EC50 is 63.1 nM.

Molecule `N#Cc1c(N2CCC(N(Cc3cccc(C(F)(F)F)c3)C3CC3)CC2)ccn(Cc2ccc(F)cc2)c1=O` [4-060] showed a melting point of 96 °C. For the same molecule, at human mGluR2 receptor, the EC50 is 50.1 nM.

Take `CC(C)CCn1ccc(-c2ccc(N3CCOCC3)c(Br)c2)c(C#N)c1=O` [1-226]: the melting point was 118 °C. Also, the EC50 at human mGluR2 receptor is 126 nM.

`CC(C)CCn1ccc(-c2cccc(Cl)c2)c(C#N)c1=O` [1-090] showed a melting point of 123 °C. Besides, the EC50 on human mGluR2 receptor was 794 nM.

Regarding `COc1ccc(-c2ccn(Cc3ccc(OC(F)(F)F)cc3)c(=O)c2C#N)cc1` [1-039], the melting point is 169 °C. At human mGluR2 receptor, the EC50 was 158 nM.

The molecule `N#Cc1c(-c2ccc(CCCO)cc2)ccn(Cc2ccc(OC(F)(F)F)cc2)c1=O` [1-040] returned a melting point of 180 °C. Also, at human mGluR2 receptor, the EC50 was 200 nM.

Take `CC(C)CCn1ccc(-c2ccc(N3CCOc4ccccc43)cc2)c(C#N)c1=O` [1-228]: the melting point worked out at 148 °C. Further, on human mGluR2 receptor, the EC50 is 79.4 nM.

Consider `CC(=O)N(C)Cc1ccc(-c2ccn(CCC(C)C)c(=O)c2C#N)cc1` [1-177], for which the melting point turned out to be 112 °C. At human mGluR2 receptor, the EC50 was 3980 nM.

With `CC(C)CCn1ccc(N2CCN(c3ncccc3C(F)(F)F)CC2)c(C#N)c1=O` [2-026], the melting point was 135 °C. Further, the EC50 at human mGluR2 receptor was 200 nM.

On to `N#Cc1c(-c2ccc(CN3CCCCC3)cc2)ccn(Cc2ccc(OC(F)(F)F)cc2)c1=O` [1-031], for which the melting point stood at 167 °C. Further, at human mGluR2 receptor, the EC50 is 2510 nM.

`CN(Cc1ccccc1)C1CCN(c2ccn(CCOc3ccccc3)c(=O)c2C#N)CC1` [4-064]: the melting point is 159 °C. Besides, the EC50 on human mGluR2 receptor is 126 nM.

Molecule `CN(c1ccn(Cc2ccc(OC(F)(F)F)cc2)c(=O)c1C#N)C1CCN(Cc2ccccc2)CC1` [3-013] displayed a melting point of 211 °C. Moreover, the EC50 at human mGluR2 receptor is 3980 nM.

With `CC(C)CCn1ccc(N2CCC(c3noc(CC(C)(C)C)n3)CC2)c(C#N)c1=O` [4-040], the melting point turned out to be 113 °C. Also, the EC50 on human mGluR2 receptor is 398 nM.

As to `CC(C)CCn1ccc(N(C)C2CCN(Cc3cccc(C(F)(F)F)c3)CC2)c(C#N)c1=O` [3-006], the melting point came out at 131 °C. Further, on human mGluR2 receptor, the EC50 was 2510 nM.

Molecule `CC(C)CCn1ccc(-c2ccc(OCc3ccc(F)cc3)cc2)c(C#N)c1=O` [1-147] had a melting point of 146 °C. Also, the EC50 at human mGluR2 receptor was 79.4 nM.

For the molecule `CC(C)CCn1ccc(N2CCC(N(C)Cc3ccc(C(F)(F)F)cc3)CC2)c(C#N)c1=O` [4-029], the melting point was determined as 91 °C. In addition, at human mGluR2 receptor, the EC50 was 126 nM.

Regarding `COc1ccc(-c2ccn(CCOc3ccccc3)c(=O)c2C#N)cc1` [1-048], the melting point was found to be 188 °C. Moreover, the EC50 on human mGluR2 receptor is 1000 nM.

Molecule `CC(C)CCn1ccc(-c2ccc3c(c2)CCO3)c(C#N)c1=O` [1-251] returned a melting point of 117 °C. On human mGluR2 receptor, the EC50 is 1260 nM.

`Cc1ccc(Cn2ccc(-c3cccs3)c(C#N)c2=O)cc1` [1-019] displayed a melting point of 118 °C. Further, at human mGluR2 receptor, the EC50 is 794 nM.

`CC(C)CCn1ccc(-c2ccc(OCC(F)(F)F)c(Cl)c2)c(C#N)c1=O` [1-123] yielded a melting point of 189 °C. For the same molecule, on human mGluR2 receptor, the EC50 is 158 nM.

Turning to `N#Cc1c(-c2ccc(CN3CCOCC3)cc2)ccn(Cc2ccc(OC(F)(F)F)cc2)c1=O` [1-033], the melting point was 97 °C. The EC50 on human mGluR2 receptor is 2510 nM.

`CC(C)CCn1ccc(-c2ccc(Oc3ccncc3)cc2)c(C#N)c1=O` [1-156] came in with a melting point of 139 °C. The EC50 on human mGluR2 receptor was 501 nM.

Molecule `CC(C)CCn1ccc(-c2ccc(CC#N)cc2)c(C#N)c1=O` [1-254] showed a melting point of 122 °C. Further, the EC50 at human mGluR2 receptor is 2510 nM.

The molecule `N#Cc1c(N2CCN(Cc3ccc(OCC4CC4)c(Cl)c3)CC2)ccn(CC2CC2)c1=O` [2-040] yielded a melting point of 157 °C. The EC50 at human mGluR2 receptor was 501 nM.

As for `N#Cc1c(-c2ccc(OC(F)(F)F)cc2)ccn(CC2CCCC2)c1=O` [1-007], the melting point was determined as 159 °C. Also, on human mGluR2 receptor, the EC50 was 398 nM.

Take `CC(C)CCn1ccc(-c2ccc(OCc3ccncc3)cc2F)c(C#N)c1=O` [1-162]: the melting point turned out to be 156 °C. Besides, the EC50 at human mGluR2 receptor was 398 nM.

The molecule `CC(C)CCn1ccc(-c2ccc(OCc3ccc(Cl)nc3)cc2)c(C#N)c1=O` [1-164] gave a melting point of 165 °C. Moreover, the EC50 at human mGluR2 receptor is 158 nM.

Molecule `N#Cc1c(N2CCC(N(Cc3cccc(F)c3)C3CC3)CC2)ccn(Cc2ccc(F)cc2)c1=O` [4-059] showed a melting point of 157 °C. In addition, the EC50 on human mGluR2 receptor is 251 nM.

Molecule `CC(C)CCn1ccc(C#Cc2ccc(N(C)C)cc2)c(C#N)c1=O` [1-270] returned a melting point of 166 °C. For the same molecule, at human mGluR2 receptor, the EC50 was 100 nM.
